By GI50 is commonly meant the concentration that inhibits growth by half. For orientation: TGI means the concentration giving total growth inhibition. Read a high TGI as lower sensitivity of the cells.

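Test compounds were applied to cells in 96-well plates for 48 hours at 5 doses. GI50 = concentration required for 50% inhibition of growth. The concentration for full growth arrest is given as TGI.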

Holding throughout (experiment): DTP human tumour cell line panel, 48 h
The test system of test [1] is HT29 colon.
For test [2], the system named is K-562 leukemia.
For test [3], the system named is KM12 colon.
In test [4] the test system is LOX IMVI melanoma.
Test [5] has as its system MALME-3M melanoma.
In test [6] the test system is RXF 393 renal.
Test [7] deals with SF-295 CNS.
Test [8] has as its system TK-10 renal.
For test [9], the system named is UACC-257 melanoma.
Test [10] relates to UO-31 renal.

For the compound `Cc1ccc2nc(NC(=O)CSC(=S)N3CCN(Cc4ccccc4)CC3)sc2c1`, the GI50 in [1] is 75.2 µM; in [2] it was greater than 100 µM; in test [3] it was greater than 94.3 µM; in test [5], greater than 100 µM; in test [6] it was greater than 100 µM; in test [7], greater than 100 µM. Besides, the GI50 was greater than 100 µM in test [8], greater than 100 µM in test [9] and greater than 79.5 µM in [10]. Besides, the TGI in test [1] was greater than 100 µM; in [2], greater than 100 µM; in test [3] it was greater than 100 µM; in [4] it was greater than 21 µM; in [5], greater than 100 µM; in [6], greater than 100 µM. The TGI in test [7], in [8], in [9] and in test [10] was greater than 100 µM each time.
As for `Cc1cc(Cl)ccc1N1C(=O)C(=O)C(c2nc3ccccc3s2)/C(=N\NC(=O)c2ccccc2O)C1=O` (stereo not given), the TGI in test [1], in test [2], in test [3], in test [4], in test [5] and in test [6] was greater than 100 µM throughout. For the same compound, the TGI in test [7], in test [8], in test [9] and in [10] was greater than 100 µM in each case.
In the case of `CCN(CCc1ccc(F)cc1)c1ccc(CO)c(Cl)c1`, the GI50 in [1] was 11.3 µM; in [2], 4.21 µM; in test [3], 15 µM; in [4] it was 12.1 µM; in test [5] it was 16 µM; in test [6], 4.72 µM. Moreover, the GI50 in test [7] was 3.44 µM; in test [8], 0.366 µM; in test [9], 1.42 µM; in [10] it was 11.1 µM. In addition, the total growth inhibition concentration (TGI) in test [1] came to 27.3 µM; in test [2] it was 25.7 µM; in test [3], 30 µM; in test [4], 25.6 µM; in test [5], 31.1 µM; in test [6], 19.9 µM. The TGI in [7] was 17.6 µM; in [8], 1.7 µM; in test [9] it was 4.87 µM; in test [10], 23.8 µM.
`Cc1ccc(S(=O)(=O)NC(C)C(=O)O)cc1` (stereo not given): the TGI in [1], in test [2], in test [3], in test [4], in [5] and in test [6] was greater than 100 µM in each case. For the same compound, the TGI in test [7], in test [8], in test [9] and in test [10] was greater than 100 µM throughout. In test [2], the GI50 is greater than 100 µM.
On to `C=CCCC12CCCC(=O)C1Sc1ccc3ccccc3c12` (stereo not given), for which the TGI is 67.2 µM in test [1]; greater than 100 µM in test [2]; 31.2 µM in [3]; 26.5 µM in [4]; 52.7 µM in test [5]; 26.2 µM in test [6]. Also, the total growth inhibition concentration (TGI) in test [7] came out at 51.2 µM; in [8], 51.2 µM; in test [9], 55.7 µM; in [10], 42.5 µM.
For `O=C(O)C1(C(=O)O)CCN(S(=O)(=O)c2ccccc2)CC1`, the TGI in [1], in [2], in test [3], in [4], in test [5] and in test [6] was greater than 100 µM in each case. Also, the TGI in test [7], in test [8], in [9] and in [10] was greater than 100 µM each time.
For `CC(=O)[CH-]C(=O)c1ccccc1.CC(=O)[CH-]C(=O)c1ccccc1.CC(C)CCCC(C)[C@H]1CCC2[C@@H]3CCC4C[C@@H]([O-])CC[C@]4(C)C3CC[C@@]21C.CC(C)CCCC(C)[C@H]1CCC2[C@@H]3CCC4C[C@@H]([O-])CC[C@]4(C)C3CC[C@@]21C.Cl.[Ti+4]` (stereo not given in full), the GI50 in [1] was greater than 25 µM; in [2], greater than 25 µM; in [3], greater than 25 µM; in test [4] it was greater than 25 µM; in test [5] it was 8.93 µM; in test [6], greater than 25 µM. For the same compound, the GI50 in test [7], in [8], in test [9] and in test [10] was greater than 25 µM throughout. In addition, the total growth inhibition concentration (TGI) in test [1], in test [2], in test [3], in test [4], in test [5] and in test [6] was greater than 25 µM throughout. Also, the TGI in test [7], in test [8], in test [9] and in [10] was greater than 25 µM each time.
Consider `COC(=O)/C=C\C1C(C(=O)OC)C2(C(=O)OC)CCC1(C(=O)OC)N2` (stereo not given), for which the TGI in [1] turned out to be 45.7 µM; in test [2] it was 53.2 µM; in test [3], 36.7 µM; in [4], 29 µM; in [5], 15.8 µM; in [6], 19.7 µM. The TGI in test [7] was found to be 44.8 µM; in [8] it was 15 µM; in test [9], 19.2 µM; in [10], 30.8 µM.
On to `COC(=O)c1c(C(=O)OC)c(C(=O)OC)c(C(=O)OC)c1C(=O)OC`, for which the TGI in [1], in test [2], in test [3], in test [4], in test [5] and in test [6] was greater than 100 µM throughout. Moreover, the TGI in test [7], in test [8], in test [9] and in [10] was greater than 100 µM throughout.
For the compound `COc1cc(C)c(N(C)C(=O)CN(C)C)cc1Nc1nc(Nc2cccc(F)c2C(N)=O)c2cc[nH]c2n1`, the GI50 in test [1] is 1.37 µM; in [2], 18.1 µM; in test [3], greater than 25 µM; in test [4], 24.6 µM; in test [5] it was greater than 25 µM; in [6] it was 20.5 µM. Also, the GI50 in test [7] was greater than 25 µM; in test [8], greater than 22 µM; in test [9] it was greater than 15.1 µM; in test [10] it was 9.26 µM. The total growth inhibition concentration (TGI) in test [1], in test [2], in test [3], in test [4], in [5] and in test [6] was greater than 25 µM each time. Further, the TGI in test [7], in [8], in [9] and in test [10] was greater than 25 µM each time.
On to `CCCCCCCCCCSS(=O)(=O)c1ccc(C)cc1`, for which the TGI in [1] was 23.9 µM; in test [2], 46.8 µM; in test [3], 30.4 µM; in test [4], 15.7 µM; in test [5], 31.3 µM; in test [6] it was 32.4 µM. The TGI in test [7] came to 18.1 µM; in test [8], 37.9 µM; in [9] it was 19.8 µM; in test [10] it was 29 µM.
In the case of `CC(=O)[CH-]C(=O)c1ccccc1.CC(=O)[CH-]C(=O)c1ccccc1.[O-]c1ccc(O)cc1.[O-]c1ccc(O)cc1.[Ti+4]`, the GI50 is 21.5 µM in test [1]; 15.4 µM in test [2]; 15.3 µM in test [3]; 14.3 µM in test [4]; 18.1 µM in test [5]; 6.64 µM in [6]. Further, the GI50 in test [7] is 16.5 µM; in [8], 27.7 µM; in test [9], 21.5 µM; in test [10] it was 23.7 µM. Moreover, the TGI in [1] came to 59.7 µM; in test [2], 76 µM; in [3], 33 µM; in test [4], 27.3 µM; in test [5], 33.5 µM; in [6], 20.5 µM. The TGI in [7] amounted to 34.3 µM; in test [8], 59.2 µM; in test [9], 70.7 µM; in test [10], 49.5 µM.
For `CCOc1ccc2c(-c3ccnc(Nc4cccc(C(F)(F)F)c4)n3)cnn2n1`, the GI50 in test [1] is 10.1 µM; in test [2], 15.9 µM; in [3], 5.07 µM; in [4], 12.3 µM; in test [5] it was greater than 25 µM; in test [6], 14.2 µM. Further, the GI50 was greater than 25 µM in test [7], 9.72 µM in test [8], greater than 25 µM in test [9] and greater than 25 µM in test [10]. Also, the TGI is greater than 25 µM in test [1]; greater than 25 µM in test [2]; 14 µM in test [3]; greater than 25 µM in test [4]; greater than 25 µM in test [5]; greater than 25 µM in test [6]. For the same compound, the TGI in test [7] was greater than 25 µM; in test [8], greater than 23.8 µM; in test [9] it was greater than 25 µM; in test [10], greater than 25 µM.
Turning to `COc1cccc2c1C(=O)c1c(O)c3c(c(O)c1C2=O)C[C@@](O)(C(=O)COC(=O)c1cccnc1)C[C@@H]3OC1CC(N)C(O)C(C)O1` (stereo not given in full), the GI50 in [1] is 0.199 µM; in test [2], 0.15 µM; in [3], 0.284 µM; in test [4] it was 0.0443 µM; in test [5], 0.115 µM; in test [6], 0.169 µM. Moreover, the GI50 was 0.148 µM in [7], 0.149 µM in test [8], 0.172 µM in [9] and 0.46 µM in test [10]. In addition, the TGI is 1.53 µM in [1]; 2.75 µM in test [2]; 8.44 µM in [3]; 0.372 µM in test [4]; 0.353 µM in test [5]; 0.589 µM in test [6]. Moreover, the TGI was determined as 2.29 µM in test [7], 0.845 µM in test [8], 0.557 µM in [9] and 2.89 µM in test [10].
For the compound `c1ccc(CN2CCC3(CC2)ONC2=NCCN23)cc1`, the GI50 is 61.4 µM in test [1]; 42.8 µM in [2]; 58.5 µM in test [3]; 21.7 µM in test [4]; greater than 100 µM in [5]; 88.1 µM in test [6]. The GI50 in test [7] is greater than 100 µM; in [8], 72 µM; in [9] it was greater than 100 µM; in [10] it was 22.3 µM. Further, the TGI in test [1] is greater than 100 µM; in test [2], greater than 100 µM; in [3], greater than 100 µM; in test [4], 55.5 µM; in test [5] it was greater than 100 µM; in test [6] it was greater than 100 µM. The TGI in test [7], in test [8], in test [9] and in test [10] was greater than 100 µM throughout.
In the case of `CC(C)(C)OC(=O)N(CCCn1c2c(c3ccccc3c1=O)C(=O)c1ccccc1-2)CCN(CCCn1c2c(c3ccccc3c1=O)C(=O)c1ccccc1-2)C(=O)OC(C)(C)C`, the GI50 is greater than 50 µM in test [1]; 21.3 µM in test [2]; greater than 50 µM in test [3]; 25.2 µM in test [4]; greater than 50 µM in test [5]; 12.6 µM in test [6]. The GI50 in [7] is 14 µM; in [8], greater than 50 µM; in test [9], greater than 50 µM; in [10], greater than 50 µM. The TGI in [1], in test [2], in test [3], in test [4], in test [5] and in test [6] was greater than 50 µM in each case. For the same compound, the TGI in test [7], in test [8], in test [9] and in [10] was greater than 50 µM throughout.
For `COc1ccc(CNCCCN2C(=O)c3ccc4c5c(ccc(c35)C2=O)C(=O)N(CCCNCCCCNCCCN)C4=O)c(OC)c1OC`, the GI50 in test [1] was 0.452 µM; in test [2], 0.761 µM; in [3], 1.27 µM; in [4] it was 0.654 µM; in [5], 1.21 µM; in test [6] it was 1.36 µM. Further, the GI50 in [7] is 2.35 µM; in test [8], 2.71 µM; in test [9], 0.334 µM; in test [10], 4.84 µM. For the same compound, the TGI in test [1] stood at 3.23 µM; in test [2] it was 12.7 µM; in test [3], 7.53 µM; in test [4], 7.83 µM; in test [5], 2.76 µM; in test [6] it was 3.67 µM. Also, the TGI in test [7] is 15.9 µM; in test [8], 12.8 µM; in test [9], 1.38 µM; in test [10] it was greater than 100 µM.

These data come from PubChem BioAssay (NCI).
